# Source: patent US20130225609A1, “COMBINATIONS OF MEDICAMENTS, CONTAINING PDE4-INHIBITORS AND EP4-RECEPTOR-ANTAGONISTS” (BOEHRINGER INGELHEIM INTERNATIONAL GMBH, priority 2010, published 2013)
# Legend:
# [1] = Experiment 2: Lumiracoxib (COX-2 selective) / SC-560 (COX-1 selective) and roflumilast-mediated side effects in rats; assay type: in vivo, male Wistar rats; details: four days
# Description: Six male Wistar rats were given a daily dosage of 0.5%
# For pharmacokinetic analysis (determining plasma levels of the substances) one rat from each group was used on day 4; these rats were no longer available for the investigation of other parameters.
# [2] = Experiment 1: diclofenac and roflumilast-mediated side effects in rats
# Protocol: Six male Wistar rats in each group were treated for four days with the following substances (all substances are given p.o.=orally):
# Group 1 (“Control Group”):
# Six male Wistar rats were given a daily dose of 0.5% Natrosol (placebo) at the times 0800, 1300 and 1700 hours.
# Group 2 (“Diclofenac Group”):
# Six male Wistar rats were given a daily dose of 1 mg/kg of diclofenac (NSAID) at the times 0800 and 1700 hours and 0.5% Natrosol (placebo) at 1300 hours.
# Group 3 (“Roflumilast Group”):
# Six male Wistar rats were given a daily dose of 0.5% Natrosol (placebo) at 0800 and 1700 hours and 10 mg/kg roflumilast (PDE4 inhibitor) at 1300 hours.
# Group 4 (“Roflumilast+Diclofenac Group”):
# Six male Wistar rats were given a daily dose of 1 mg/kg diclofenac (NSAID) at the times 0800 and 1700 hours and 10 mg/kg roflumilast (PDE4 inhibitor) at 1300 hours.
# For pharmacokinetic analysis (determining the plasma levels of the substances) on day 4 one rat from each group was used; these rats were no longer available for other parameters under investigation.
# During the experiment the body weights of the animals were determined and the differences in the body weights of the rats from the different groups towards the end of the experiment were shown as a percentage change from the time of the first administration (=day 1, 0800 hours (=time t0)). The average±standard deviation of the body weights at time t0 was 355±17 g.
# At the end of the experiment (day 5, 95 hours after t0 (=the time of the first administration on day 1, 0800)) the proportion of neutrophils (in % of white blood cells, FIG. 2) were determined from the blood of 4 or 5 of the rats from the individual groups. In addition, the weights of the animals' spleens were measured and the mesenteries were dissected for histopathological investigation for vasculitis (multifocal perivascular mononuclear/polymorphonuclear infiltration).
# [3] = Experiment 3: EP4 antagonist MF498 and roflumilast-mediated side effects in rats; assay type: in vivo, male Wistar rats; details: four days
# Protocol: Six male Wistar rats were given a daily dosage of 0.5% Natrosol (Placebo) at 1300 hours.
# Six male Wistar rats were given a daily dosage of 20 mg/kg MF-498 (EP4 antagonist) in each case at 1300 hours.
# Six male Wistar rats were given a daily dosage of 10 mg/kg Roflumilast (PDE4 inhibitor) at 1300 hours.
# [4] = Experiment 4: EP2-preferential antagonist AH6809 and roflumilast-mediated side effects in rats; assay type: in vivo, male Wistar rats; details: four days
# Protocol: Six male Wistar rats were given a daily dosage of 10 mg/kg AH-6809 (preferential EP2 antagonist) at 1300 hours. Six male Wistar rats were given a daily dosage of 10 mg/kg Roflumilast (PDE4 inhibitor) at 1300 hours.
# [5] = 2 mg/kg p.o. at 0800 and 1700 hours + 10 mg/kg roflumilast p.o. at 1300 hours
# [6] = 1 mg/kg p.o. at 0800 and 1700 hours + 10 mg/kg roflumilast p.o. at 1300 hours, four days
# [7] = 20 mg/kg p.o. + 10 mg/kg roflumilast p.o. at 1300 hours
# [8] = 10 mg/kg p.o. + 10 mg/kg roflumilast p.o. at 1300 hours
# [9] = Roflumilast group: 10 mg/kg roflumilast p.o. daily
smiles,measurement,setting,value
Cc1ccc(Nc2c(F)cccc2Cl)c(CC(=O)O)c1 [Lumiracoxib],effect of co-administration on roflumilast-mediated loss of body weight (FIG. 5),[1]; [5],substantially reduced or prevented
same,effect of co-administration on roflumilast-mediated loss of spleen weight (FIG. 6),[1]; [5],substantially reduced or prevented
same,effect of co-administration on roflumilast-mediated mesenteric vasculitis (FIG. 8),[1]; [5],substantially reduced or prevented
same,effect of co-administration on roflumilast-mediated neutrophilia (FIG. 7),[1]; [5],substantially reduced or prevented
same,"parameters measured after administration on its own (body weight, spleen weight, neutrophils, vasculitis)","[1]; 2 mg/kg p.o. at 0800 and 1700 hours, without roflumilast",very similar to the control groups
O=C(O)Cc1ccccc1Nc1c(Cl)cccc1Cl [diclofenac],effect of co-administration on roflumilast-mediated loss of body weight (FIG. 1),[2]; [6],substantially reduced or prevented
same,effect of co-administration on roflumilast-mediated loss of spleen weight (FIG. 2),[2]; [6],substantially reduced or prevented
same,effect of co-administration on roflumilast-mediated mesenteric vasculitis (FIG. 4),[2]; [6],substantially reduced or prevented
same,effect of co-administration on roflumilast-mediated neutrophilia (FIG. 3),[2]; [6],substantially reduced or prevented
same,"parameters measured after administration on its own (body weight, spleen weight, neutrophils, vasculitis)","[2]; 1 mg/kg p.o. at 0800 and 1700 hours, four days, without roflumilast",very similar to the control groups
"CCOc1c2c(c(OCC)c3ncccc13)CN(c1ccc(CS(=O)(=O)NC(=O)Cc3ccccc3OC)cc1C)C2=O [MF-498, N-{[4-(5,9-diethoxy-6-oxo-6,8-dihydro-7H-pyrrolo[3,4-g]quinolin-7-yl)-3-methylbenzyl]sulphonyl}-2-(2-methoxyphenyl)acetamide]",effect of co-administration on roflumilast-mediated loss of body weight (FIG. 9),[3]; [7],substantially reduced
same,effect of co-administration on roflumilast-mediated loss of spleen weight (FIG. 10),[3]; [7],substantially reduced
same,effect of co-administration on roflumilast-mediated mesenteric vasculitis (FIG. 12),[3]; [7],substantially reduced
same,effect of co-administration on roflumilast-mediated neutrophilia (FIG. 11),[3]; [7],substantially reduced
same,differences in the weight of the spleen between the Roflumilast group and the Roflumilast+MF-498 group (statistics),"[3]; 20 mg/kg p.o. + 10 mg/kg roflumilast p.o., two-way analysis of variance",do not achieve statistical significance
same,"parameters measured after administration on its own (body weight, spleen weight, neutrophils, vasculitis)","[3]; 20 mg/kg p.o. daily, without roflumilast",very similar to the control group
"CC(C)Oc1ccc2c(=O)c3cc(C(=O)O)ccc3oc2c1 [AH6809, 6-isopropoxy-9-oxoxanthene-2-carboxylic acid]",effect of co-administration on roflumilast-mediated loss of body weight (FIG. 13),[4]; [8],no indications that the EP2 preferential receptor antagonist AH-809 had any influence
same,effect of co-administration on roflumilast-mediated loss of spleen weight (FIG. 14),[4]; [8],no indications that the EP2 preferential receptor antagonist AH-809 had any influence
same,effect of co-administration on roflumilast-mediated mesenteric vasculitis (FIG. 16),[4]; [8],no indications that the EP2 preferential receptor antagonist AH-809 had any influence
same,effect of co-administration on roflumilast-mediated neutrophilia (FIG. 15),[4]; [8],no indications that the EP2 preferential receptor antagonist AH-809 had any influence
same,"effect of EP2 blockage on the parameters measured (roflumilast-mediated side effects, overall)",[4]; 10 mg/kg p.o. + 10 mg/kg roflumilast p.o.,shows no effect on the parameters measured
same,"parameters measured after administration on its own (body weight, spleen weight, neutrophils, vasculitis)","[4]; 10 mg/kg p.o. daily, without roflumilast",very similar to the control group
O=C(Nc1c(Cl)cncc1Cl)c1ccc(OC(F)F)c(OCC2CC2)c1 [Roflumilast],death of animals,"[2]; Roflumilast group: 10 mg/kg p.o. daily, six rats per group",one rat from the roflumilast group which died between day 4 and day 5
same,loss of body weight (FIG. 5),[1]; [9],observed
same,loss of spleen weight (FIG. 6),[1]; [9],observed
same,"mesenteric vasculitis (monocyte/polymorphonuclear perivascular infiltration into the mesentery, FIG. 8)",[1]; [9],observed
same,neutrophilia (FIG. 7),[1]; [9],observed
same,loss of body weight (FIG. 9),[3]; [9],observed
same,loss of spleen weight (FIG. 10),[3]; [9],observed
same,"mesenteric vasculitis (monocyte/polymorphonuclear perivascular infiltration into the mesentery, FIG. 12)",[3]; [9],observed
same,neutrophilia (FIG. 11),[3]; [9],observed
same,loss of body weight (FIG. 13),[4]; [9],observed
same,loss of spleen weight (FIG. 14),[4]; [9],observed
same,"mesenteric vasculitis (monocyte/polymorphonuclear perivascular infiltration in the mesentery, FIG. 16)",[4]; [9],observed
same,neutrophilia (FIG. 15),[4]; [9],observed
